{"source": "patent US20240374631A1", "about": "“A COMPOSITION FOR IMPROVING GUT MICROBIOTA, BEHAVIOURAL PATTERN, ALPHA-SYNUCLEIN LEVELS, SLEEP PATTERN AND/OR SERUM MELATONIN” (GN Corporation Co Ltd, priority 2021, published 2024)", "system": "gut microbiota", "assay": "Gut microbiome analysis (16S rRNA sequencing of fecal samples) in STAM model of NASH", "assay_type": "in vivo, C57BL/6J mice", "conditions": "post-intervention", "from_the_text": "The study is reported in accordance with Animal Research: Reporting of In Vivo Experiments (ARRIVE) guidelines. C57BL/6J mice were obtained from Japan SLC, Inc. (Japan). All animals used in this study were cared for under the following guidelines: Act on Welfare and Management of Animals (Ministry of the Environment, Japan, Act No. 105 of Oct. 1, 1973), standards relating to the care and management of laboratory animals and relief of pain (Notice No. 88 of the Ministry of the Environment, Japan, Apr. 28, 2006) and the guidelines for proper conduct of animal experiments (Science Council of Japan, Jun. 1, 2006). Protocol approvals were obtained from SMC Laboratories, Japan's IACUC (Study reference no: […] Mice were maintained in a specific pathogen-free (SPF) facility under controlled conditions of temperature (23±3° C.), humidity (50±20%), lighting (12-hour artificial light and dark cycles; light from 8:00 to 20:00) and air exchange. The STAM model of NASH was induced as previously described [D10]. Mice were given a single subcutaneous injection of 200 μg streptozotocin (STZ, Sigma-Aldrich, USA) solution 2 days after birth and fed with a high-fat diet (HFD, 57 kcal % fat, Cat #HFD32, CLEA Japan, Inc., Japan) from 4-9 weeks of age. All mice develop liver steatosis and diabetes and at […] mice had established steatohepatitis, histologically. Studygroups: There were five study groups, described below. Eight mice were included in each study group. Eight NASH mice were orally administered vehicle supplemented with AFO-202 Beta Glucan at a dose of 1 mg/kg in a volume of 5 mL/kg once daily from 6 to 9 weeks of age. Eight NASH mice were orally administered vehicle supplemented with Telmisartan at a dose of 10 mg/kg once daily from 6 to 9 weeks of age. Frequency: Fecal samples were collected at the 6 weeks of age (before administration) and 9 weeks of age (before sacrifice). Procedure: At 6 weeks of age, fecal samples were collected from each mouse by clean catch method. […] A sterile petri dish was placed on the bench. Gently massage the abdomen, position the bottom of mouse over a fresh petri dish, and collect 1-2 fecal pellets. At sacrifice, fecal samples were aseptically collected from cecum. The tubes with feces were placed on ice immediately. These tubes were snap frozen in liquid nitrogen and stored at -80° C. for shipping. In this analysis, the 16S rRNA sequence data acquired by the next-generation sequencer from the fecal […] was used to perform community analysis using the QIIME2 program for microbial community analysis. The raw read data in FASTQ format output from the next-generation sequencer was trimmed to remove adapter sequences and low QV regions that may be included in the data. Cutadapt was used to remove adapter sequences from DNA sequencing reads. Trimmomatic was used as read trimming tool for Illumina NGS data. The adapter sequence was trimmed using the adapter trimming program “cutadapt” if the Trimming of the region at the end of the read sequence overlapped the corresponding sequence by at least one base (mismatch tolerance: 20%). When reads containing N were present in at least one of Read1 and Read2, both Read1 and Read2 were removed. Trimming of low QV regions was performed on the read data after processing using the QV trimming program “Trimmomatic” under the following conditions. The window of 20 bases is slid from the 5' side, and the area where the average QV is less than 20 is trimmed. After trimming, only the reads with more than 50 bases remaining in both Read1 and Read2 were taken as output. The microbial community analysis based on 16S rRNA sequence was performed on the sequence data trimmed in the previous section using the microbial community analysis program “QIIME2”. The annotation program “sklearn” included in QIIME2 is used to annotate the ASV (OTU) sequences. […]", "data": [{"smiles": "CCCc1nc2c(C)cc(-c3nc4ccccc4n3C)cc2n1Cc1ccc(-c2ccccc2C(=O)O)cc1", "note": "[Telmisartan]", "values": [{"measurement": "Abundance: Ruminococcaceae, Oscillospira, —", "setting": "line r190", "result": 135}, {"measurement": "Abundance: Ruminococcaceae, Oscillospira, —", "setting": "line r191", "result": 53}, {"measurement": "Abundance: Lachnospiraceae, [Ruminococcus], gnavus", "setting": "line r192", "result": 87}, {"measurement": "Abundance: Ruminococcaceae, Oscillospira, —", "setting": "line r193", "result": 42}, {"measurement": "Abundance: Lactobacillaceae, Lactobaccilus, reuteri", "setting": "line r194", "result": 0}, {"measurement": "Abundance: Coriobacteriaceae, Adlercreutzia, —", "setting": "line r195", "result": 0}, {"measurement": "Abundance: Lachnospiraceae, —, —", "setting": "line r196", "result": 0}, {"measurement": "Abundance: S24-7, —, —", "setting": "line r197", "result": 49}, {"measurement": "Abundance: Turicibacteraceae, Turicibacter, —", "setting": "line r198", "result": 0}, {"measurement": "Abundance: S24-7, —, —", "setting": "line r199", "result": 41}, {"measurement": "Abundance: Rikenellaceae, —, —", "setting": "line r200", "result": 86}, {"measurement": "Abundance: Enterobacteriaceae, Other, Other", "setting": "line r201", "result": 0}, {"measurement": "Abundance: Rikenellaceae, Other, Other", "setting": "line r202", "result": 53}, {"measurement": "Abundance: Lactobacillaceae, Lactobaccilus, Other", "setting": "line r204", "result": 0}, {"measurement": "Abundance: —, —, —", "setting": "line r205", "result": 0}, {"measurement": "Abundance: S24-7, —, —", "setting": "line r206", "result": 45}, {"measurement": "Abundance: S24-7, —, —", "setting": "line r207", "result": 109}, {"measurement": "Abundance: —, —, —", "setting": "line r208", "result": 19}, {"measurement": "Abundance: Enterobacteriaceae, Klebsiella, Other", "setting": "line r209", "result": 0}, {"measurement": "Abundance: —, —, —", "setting": "line r210", "result": 3}, {"measurement": "Abundance: Lachnospiraceae, Other, Other", "setting": "line r211", "result": 137}, {"measurement": "Abundance: Ruminococcaceae, Oscillospira, —", "setting": "line r212", "result": 0}, {"measurement": "Abundance: Ruminococcaceae, Oscillospira, —", "setting": "line r213", "result": 65}, {"measurement": "Abundance: Bacteroidaceae, Bacteroides, acidifaciens", "setting": "line r214", "result": 35}, {"measurement": "Abundance: Erysipelotrichaceae, —, —", "setting": "line r215", "result": 0}, {"measurement": "Abundance: Lachnospiraceae, Dorea, —", "setting": "line r216", "result": 74}, {"measurement": "Abundance: Enterobacteriaceae, Enterobacter, Other", "setting": "line r217", "result": 41}, {"measurement": "Abundance: Ruminococcaceae, Oscillospira, —", "setting": "line r218", "result": 45}, {"measurement": "Abundance: Ruminococcaceae, Other, Other", "setting": "line r219", "result": 12}, {"measurement": "Abundance: Ruminococcaceae, Oscillospira, —", "setting": "line r220", "result": 184}, {"measurement": "Abundance: Rikenellaceae, —, —", "setting": "line r221", "result": 43}, {"measurement": "Abundance: —, —, —", "setting": "line r222", "result": 79}, {"measurement": "Abundance: Lachnospiraceae, Other, Other", "setting": "line r223", "result": 273}, {"measurement": "Abundance: Other, Other, Other", "setting": "line r224", "result": 87}, {"measurement": "Abundance: Ruminococcaceae, Oscillospira, —", "setting": "line r225", "result": 72}, {"measurement": "Abundance: S24-7, —, —", "setting": "line r226", "result": 85}, {"measurement": "Abundance: Lachnospiraceae, —, —", "setting": "line r227", "result": 0}, {"measurement": "Abundance: Streptococcaceae, Staphylococcus, —", "setting": "line r228", "result": 27}, {"measurement": "Abundance: —, —, —", "setting": "line r229", "result": 0}, {"measurement": "Abundance: —, —, —", "setting": "line r230", "result": 0}, {"measurement": "Abundance: —, —, —", "setting": "line r231", "result": 101}, {"measurement": "Abundance: Other, Other, Other", "setting": "line r232", "result": 71}, {"measurement": "Abundance: Aerococcaceae, Aerococcus, —", "setting": "line r233", "result": 187}, {"measurement": "Abundance: Ruminococcaceae, —, —", "setting": "line r234", "result": 0}, {"measurement": "Abundance: —, —, —", "setting": "line r235", "result": 108}, {"measurement": "Abundance: Ruminococcaceae, Oscillospira, —", "setting": "line r237", "result": 26}, {"measurement": "Abundance: —, —, —", "setting": "line r238", "result": 51}, {"measurement": "Abundance: Ruminococcaceae, Ruminococcus, —", "setting": "line r239", "result": 43}, {"measurement": "Abundance: —, —, —", "setting": "line r240", "result": 266}, {"measurement": "Abundance: Other, Other, Other", "setting": "line r241", "result": 48}, {"measurement": "Abundance: Ruminococcaceae, Oscillospira, —", "setting": "line r242", "result": 0}, {"measurement": "Abundance: Lachnospiraceae, [Ruminococcus], gnavus", "setting": "line r243", "result": 95}, {"measurement": "Abundance: Lachnospiraceae, —, —", "setting": "line r244", "result": 0}, {"measurement": "Abundance: Other, Other, Other", "setting": "line r245", "result": 45}, {"measurement": "Abundance: Ruminococcaceae, Oscillospira, —", "setting": "line r246", "result": 23}, {"measurement": "Abundance: —, —, —", "setting": "line r247", "result": 90}, {"measurement": "Abundance: Other, Other, Other", "setting": "line r248", "result": 11}, {"measurement": "Abundance: Other, Other, Other", "setting": "line r249", "result": 53}, {"measurement": "Abundance: Other, Other, Other", "setting": "line r250", "result": 57}, {"measurement": "Abundance: Lachnospiraceae, Clostridium, Other", "setting": "line r251", "result": 101}, {"measurement": "Abundance: Lachnospiraceae, —, —", "setting": "line r252", "result": 23}, {"measurement": "Abundance: Other, Other, Other", "setting": "line r253", "result": 0}, {"measurement": "Abundance: Other, Other, Other", "setting": "line r254", "result": 51}, {"measurement": "Abundance: Ruminococcaceae, Oscillospira, —", "setting": "line r255", "result": 38}, {"measurement": "Abundance: Desulfovibrionaceae, —, —", "setting": "line r256", "result": 42}, {"measurement": "Abundance: Dehalobacteriaceae, Dehalobacterium, —", "setting": "line r257", "result": 0}, {"measurement": "Abundance: Ruminococcaceae, Ruminococcus, —", "setting": "line r259", "result": 22}, {"measurement": "Abundance: Lachnospiraceae, Coprococcus, —", "setting": "line r260", "result": 46}, {"measurement": "Abundance: Ruminococcaceae, Oscillospira, —", "setting": "line r261", "result": 77}, {"measurement": "Abundance: Other, Other, Other", "setting": "line r262", "result": 38}, {"measurement": "Abundance: Lachnospiraceae, Coprococcus, —", "setting": "line r263", "result": 49}, {"measurement": "Abundance: Ruminococcaceae, Oscillospira, —", "setting": "line r264", "result": 0}, {"measurement": "Abundance: Christensenellaceae, —, —", "setting": "line r265", "result": 9}, {"measurement": "Abundance: S24-7, —, —", "setting": "line r266", "result": 8}, {"measurement": "Abundance: Ruminococcaceae, Oscillospira, —", "setting": "line r267", "result": 0}, {"measurement": "Abundance: Lachnospiraceae, Coprococcus, —", "setting": "line r268", "result": 29}, {"measurement": "Abundance: Lachnospiraceae, Other, Other", "setting": "line r269", "result": 0}, {"measurement": "Abundance: Erysipelotrichaceae, Clostridium, cocleatum", "setting": "line r271", "result": 34}, {"measurement": "Abundance: —, —, —", "setting": "line r272", "result": 0}, {"measurement": "Abundance: Desulfovibrionaceae, Bilophila, —", "setting": "line r273", "result": 17}, {"measurement": "Abundance: —, —, —", "setting": "line r274", "result": 0}, {"measurement": "Abundance: Corynebacteriaceae, Corynebacterium, stationis", "setting": "line r275", "result": 0}, {"measurement": "Abundance: Lachnospiraceae, Other, Other", "setting": "line r276", "result": 34}, {"measurement": "Abundance: Lachnospiraceae, Other, Other", "setting": "line r277", "result": 82}, {"measurement": "Abundance: Lachnospiraceae, —, —", "setting": "line r278", "result": 10}, {"measurement": "Abundance: Lachnospiraceae, —, —", "setting": "line r279", "result": 0}, {"measurement": "Abundance: —, —, —", "setting": "line r280", "result": 0}, {"measurement": "Abundance: —, —, —", "setting": "line r281", "result": 84}, {"measurement": "Abundance: —, —, —", "setting": "line r282", "result": 0}, {"measurement": "Abundance: Ruminococcaceae, —, —", "setting": "line r283", "result": 0}, {"measurement": "Abundance: —, —, —", "setting": "line r284", "result": 0}, {"measurement": "Abundance: Lachnospiraceae, —, —", "setting": "line r285", "result": 0}, {"measurement": "Abundance: Dehalobacteriaceae, Dehalobacterium, —", "setting": "line r286", "result": 43}, {"measurement": "Abundance: Other, Other, Other", "setting": "line r287", "result": 68}, {"measurement": "Abundance: Streptococcaceae, Streptococcus, luteciae", "setting": "line r288", "result": 0}, {"measurement": "Abundance: —, —, —", "setting": "line r289", "result": 0}, {"measurement": "Abundance: S24-7, —, —", "setting": "line r290", "result": 36}, {"measurement": "Abundance: Ruminococcaceae, Ruminococcus, —", "setting": "line r292", "result": 0}, {"measurement": "Abundance: Lachnospiraceae, Clostridium, Other", "setting": "line r293", "result": 0}, {"measurement": "Abundance: —, —, —", "setting": "line r294", "result": 10}, {"measurement": "Abundance: Ruminococcaceae, Oscillospira, —", "setting": "line r295", "result": 22}, {"measurement": "Abundance: Lachnospiraceae, Coprococcus, —", "setting": "line r296", "result": 30}, {"measurement": "Abundance: —, —, —", "setting": "line r297", "result": 0}]}]}
